# How the values were obtained:
# MCP-1 = MCP-1 chemokine secretion by TNFα-stimulated primary human hepatic stellate cells (ELISA); assay type: cell-based; conditions: for Fold Change MCP1 Secretion Normalized Per Cell, Mean: donor 3 hepatic stellate cells, TNFα, fold change from plasma amino acid background; for MCP-1 chemokine secretion, per-cell normalized, fold change from plasma amino acid background: primary human hepatic stellate cells, two donors, TNFα 3 ng/mL, 12 hours
# Description: Primary human hepatic stellate cells were obtained from Samsara Sciences and grown in Complete HSC Medium to […] confluence in T75 or T150 flasks below passage 10 were seeded into 96-well plates and incubated for 6 hours at 37° C., 5% CO2 in a humidified incubator. After 6 hours, plates were removed from the incubator washed with DPBS and pretreated (±single amino acid dropout, ±supplemental amino acid dose; see experiment for medium composition) overnight, ˜14-15 hours. After overnight pretreatment, the medium was removed from the cells, and the same pretreatment medium, now supplemented with 3 ng/mL TNFα was applied. Plates were incubated for 12 hours at 37° C., 5% CO2. After 12 hour stimulus with TNFα, supernatant was removed and frozen at −80° C. in two separate aliquots. Plates were washed and incubated with CCK-8 viability reagent (Dojindo) for 1 hour. Viability was measured on the Synergy plate reader. Immediately, the medium was removed and the plates were fixed for immunofluorescence staining.
# Human CCL2/MCP1 and Human IL-6 were measured by ELISA (Human […] DuoSet ELISA, R&D Systems; Human IL-6 DuoSet ELISA, R&D Systems) at ⅕ and 1/20 dilution in 1× Reagent Diluent (Reagent Ancillary Kit 2, R&D Systems). Data were normalized to the specific per well cell density determined by Hoechst stained nuclei count.
# Tables 35-38 show per-cell normalized MCP-1 chemokine secretion in primary human hepatic stellate cells from two donors as a fold change from the plasma amino acid background. Statistical significance calculated by one-way ANOVA with Dunnett's multiple comparison test within each treatment group.
# IL-6 = assay: LPS-induced IL-6 secretion in primary human monocyte-derived macrophages (ELISA); assay type: cell-based; conditions: for IL-6 Measurements Mean: LPS 0.15 ng/mL, baseline subtracted; for LPS-induced IL-6 secretion: macrophages, 0.15 ng/mL LPS
# Description: Unpurified buffy coats (Research Blood Components) were carefully poured into 50 mL centrifuge tubes and diluted with room temperature Dulbecco's Phosphate Buffered Saline (dPBS) with Calcium and Magnesium (Gibco). Diluted buffy coats were further divided into four total 50 mL centrifuge tubes at 20 mL per tube. Lymphocyte Separation Medium (Corning) was carefully pipetted to the bottom of each centrifuge tube. Mixtures were centrifuged at 850× g for 32 minutes at 20° C. with 0 deceleration and acceleration.
# The PBMC layer was separated from other components after centrifugation and added to new 50 mL centrifuge tube containing 25 mL dPBS. Total volume was brought up to 50 mL with dPBS and centrifuged at 600×g for 10 minutes at 20° C. with acceleration of 9, deceleration of 5. Supernatant was carefully removed from cell pellets. The cell pellets were resuspended using 10 mL dPBS. Total volume was then brought up to 50 mL using dPBS and centrifuged at 450×g for 5 min at 20° C. with acceleration of 9, deceleration of 9. The supernatant removal and cell pellet resuspension was repeated again.
# The supernatant was then carefully removed from cell pellets. Cell pellets were resuspended in 10 mL dPBS without calcium or magnesium and filtered through a 70 uM cell strainer. The total PBMC number was determined using a Cellometer K2 automated cell counter. A total of 5E6 cells were saved for flow cytometric analysis. Remaining cells were centrifuged at 490×g for 5 minutes at 20° C. with acceleration of 9, deceleration of 9.
# CD14+ cells were selected using EasySep™ Human CD14 Positive Selection Kit II ([…] Technologies). Cells were resuspended in cold EasySep™ Buffer ([…] Technologies) at 1×10^8 cells/mL. A total of 100 uL/mL EasySep™ Human CD14 Positive Selection Cocktail II was added to the cell suspension, mixed, and incubated at room temperature for 10 minutes. A total of 100 uL/mL RapidSpheres were added to the mixture and incubated at room temperature for 3 minutes after mixing, then RoboSep buffer was added to bring up the total volume to 10 mL. The mixture in a 15 mL tube was placed in magnet and incubated at room temperature for 3 minutes. Supernatant was discarded and 10 mL fresh EasySep™ buffer was added to 15 mL tube. The addition of RoboSep buffer, mixing, and discarding of supernatant was repeated two more times.
# Negative and positive fractions were centrifuged at 490×g for 5 minutes at 20° C. with acceleration of 9, deceleration of 9, and resuspended in DMEM (Gibco) and 10% Heat Inactivated Fetal Bovine Serum (Atlanta Bio) and Penicillin/Streptomycin. Cells were counted and centrifuged again at 490× g for 5 minutes at 20° C. with acceleration of 9, deceleration of 9. After centrifugation, cell were resuspended in DMEM (Gibco) and 10% Heat Inactivated Fetal Bovine Serum (Atlanta Bio) and Penicillin/Streptomycin containing 500 U/mL […] and plated at 1-2×10^6 cells/mL on 10 cm tissue culture plates. Cells were kept in 37° C., 5% CO2 in between feedings/harvest.
# Cells were fed every 3-4 days by removing media and unattached cells, centrifuging at 490× g for 5 minutes at 20° C. with acceleration of 9, deceleration of 9, and resuspending in fresh DMEM (Gibco) and 10% Heat Inactivated Fetal Bovine Serum (Atlanta Bio) and Penicillin/Streptomycin containing GM-CSF. Resuspended cells were seeded back onto 10 cm tissue culture plates and incubated at 37° C., 5% CO2. Differentiated macrophages were used for subsequent experiments.
# Primary human PMBC derived macrophages were seeded on day 0 at 3.0E4 cells per well in 96-well microplates (ThermoFisher) in Dulbecco's Modified Eagle Medium (DMEM) (Gibco) supplemented with penicillin-streptomycin (Hyclone) and 10% heat inactivated fetal bovine serum (HI-FBS) (Atlanta Bio) and incubated overnight at 37° C., 5% CO2. On day 1, cells were washed once with 150 uL per well DPBS (Gibco) and treated with 75 uL of: • a. […]
smiles,measurement,setting,value
"CC(=O)N[C@@H](CS)C(=O)O [NAC, N-acetylcysteine]","Fold Change MCP1 Secretion Normalized Per Cell, Mean",MCP-1; Conc. 5 X,0.8492
same,"Fold Change MCP1 Secretion Normalized Per Cell, Mean",MCP-1; Conc. 10 X,0.6565
same,"Fold Change MCP1 Secretion Normalized Per Cell, Mean",MCP-1; Conc. 20 X,0.5413
same,"Fold Change MCP1 Secretion Normalized Per Cell, Mean",MCP-1; Conc. 40 X,0.4485
same,Fold Change MCP1 Secretion Normalized Per Cell,"MCP-1; donor 3, Conc. 1000 μM",0.8492
same,Fold Change MCP1 Secretion Normalized Per Cell,"MCP-1; donor 3, Conc. 2500 μM",0.6565
same,Fold Change MCP1 Secretion Normalized Per Cell,"MCP-1; donor 3, Conc. 5000 μM",0.5413
same,Fold Change MCP1 Secretion Normalized Per Cell,"MCP-1; donor 3, Conc. 10000 μM",0.4485
same,Fold Change MCP1 Secretion Normalized Per Cell,"MCP-1; donor 4, Conc. 5 X",0.6437
same,Fold Change MCP1 Secretion Normalized Per Cell,"MCP-1; donor 4, Conc. 10 X",0.8033
same,Fold Change MCP1 Secretion Normalized Per Cell,"MCP-1; donor 4, Conc. 20 X",0.6728
same,Fold Change MCP1 Secretion Normalized Per Cell,"MCP-1; donor 4, Conc. 40 X",0.5011
same,"MCP-1 chemokine secretion, per-cell normalized, fold change from plasma amino acid background",MCP-1,significantly reduced
same,IL-6 Measurements Mean,"IL-6; Donor 1, Conc. 0 X (baseline)",0
same,IL-6 Measurements Mean,"IL-6; Donor 1, Conc. 5 X",308.1772
same,IL-6 Measurements Mean,"IL-6; Donor 1, Conc. 10 X",−121.142
same,IL-6 Measurements Mean,"IL-6; Donor 1, Conc. 20 X",−553.802
same,IL-6 Measurements Mean,"IL-6; Donor 1, Conc. 40 X",−914.194
same,IL-6 Measurements Mean,"IL-6; Donor 2, Conc. 0 X (baseline)",−2.4E−15
same,IL-6 Measurements Mean,"IL-6; Donor 2, Conc. 5 X",−0.7946
same,IL-6 Measurements Mean,"IL-6; Donor 2, Conc. 10 X",−9.751
same,IL-6 Measurements Mean,"IL-6; Donor 2, Conc. 20 X",−24.9999
same,IL-6 Measurements Mean,"IL-6; Donor 2, Conc. 40 X",−33.7585
same,IL-6 Measurements Mean,"IL-6; Donor 3, Conc. 0 X (baseline)",−9.5E−15
same,IL-6 Measurements Mean,"IL-6; Donor 3, Conc. 5 X",−70.3269
same,IL-6 Measurements Mean,"IL-6; Donor 3, Conc. 10 X",−103.586
same,IL-6 Measurements Mean,"IL-6; Donor 3, Conc. 20 X",−122.656
same,IL-6 Measurements Mean,"IL-6; Donor 3, Conc. 40 X",−140.851
same,LPS-induced IL-6 secretion,IL-6; Donor 1,significantly reduced
same,LPS-induced IL-6 secretion,IL-6; Donor 2,significantly reduced
same,LPS-induced IL-6 secretion,IL-6; Donor 3,significantly reduced
"CC[C@H](C)[C@H](N)C(=O)O [Isoleucine, L-Isoleucine]",Fold Change MCP1 Secretion Normalized Per Cell,"MCP-1; donor 3, Conc. 66 μM (plasma background, reference)",1.0000
same,Fold Change MCP1 Secretion Normalized Per Cell,"MCP-1; donor 3, Conc. 1328 μM",1.5550
same,Fold Change MCP1 Secretion Normalized Per Cell,"MCP-1; donor 3, Conc. 3320 μM",1.2169
same,Fold Change MCP1 Secretion Normalized Per Cell,"MCP-1; donor 3, Conc. 6639 μM",1.2084
same,Fold Change MCP1 Secretion Normalized Per Cell,"MCP-1; donor 4, Conc. 66 μM (plasma background, reference)",1.0000
same,IL-6 Measurements Mean,"IL-6; Donor 1, Conc. 66 μM (baseline)",0
same,IL-6 Measurements Mean,"IL-6; Donor 1, Conc. 1328 μM",25.98
same,IL-6 Measurements Mean,"IL-6; Donor 1, Conc. 3320 μM",−15.8843
same,IL-6 Measurements Mean,"IL-6; Donor 1, Conc. 6639 μM",−218.332
same,IL-6 Measurements Mean,"IL-6; Donor 2, Conc. 66 μM (baseline)",0
same,IL-6 Measurements Mean,"IL-6; Donor 2, Conc. 1328 μM",−2.318
same,IL-6 Measurements Mean,"IL-6; Donor 2, Conc. 3320 μM",2.305
same,IL-6 Measurements Mean,"IL-6; Donor 2, Conc. 6639 μM",−1.774
same,IL-6 Measurements Mean,"IL-6; Donor 3, Conc. 66 μM",−6.69
same,IL-6 Measurements Mean,"IL-6; Donor 3, Conc. 1328 μM",−28.9897
same,IL-6 Measurements Mean,"IL-6; Donor 3, Conc. 3320 μM",0
same,IL-6 Measurements Mean,"IL-6; Donor 3, Conc. 6639 μM",−16.3663
"NC(=O)CC[C@H](N)C(=O)O [Glutamine, L-Glutamine]",Fold Change MCP1 Secretion Normalized Per Cell,"MCP-1; donor 3, Conc. 562 μM (plasma background, reference)",1.0000
same,Fold Change MCP1 Secretion Normalized Per Cell,"MCP-1; donor 3, Conc. 749 μM",0.7048
same,Fold Change MCP1 Secretion Normalized Per Cell,"MCP-1; donor 3, Conc. 3747 μM",0.6036
same,Fold Change MCP1 Secretion Normalized Per Cell,"MCP-1; donor 3, Conc. 11242 μM",0.6106
same,Fold Change MCP1 Secretion Normalized Per Cell,"MCP-1; donor 3, Conc. 22484 μM",0.6212
same,Fold Change MCP1 Secretion Normalized Per Cell,"MCP-1; donor 4, Conc. 562 μM (plasma background, reference)",1.0000
same,"MCP-1 chemokine secretion, per-cell normalized, fold change from plasma amino acid background",MCP-1,reduced MCP1 secretion in both donors but was only statistically significant in one of two donors
same,IL-6 Measurements Mean,"IL-6; Donor 1, Conc. 749 μM (baseline)",0
same,IL-6 Measurements Mean,"IL-6; Donor 1, Conc. 3747 μM",291.5443
same,IL-6 Measurements Mean,"IL-6; Donor 1, Conc. 11242 μM",397.1745
same,IL-6 Measurements Mean,"IL-6; Donor 1, Conc. 22484 μM",440.1437
same,IL-6 Measurements Mean,"IL-6; Donor 2, Conc. 749 μM (baseline)",2.37E−15
same,IL-6 Measurements Mean,"IL-6; Donor 2, Conc. 3747 μM",22.52
same,IL-6 Measurements Mean,"IL-6; Donor 2, Conc. 11242 μM",63.31
same,IL-6 Measurements Mean,"IL-6; Donor 2, Conc. 22484 μM",34.39
same,IL-6 Measurements Mean,"IL-6; Donor 3, Conc. 749 μM (baseline)",3.79E−14
same,IL-6 Measurements Mean,"IL-6; Donor 3, Conc. 3747 μM",25.35
same,IL-6 Measurements Mean,"IL-6; Donor 3, Conc. 11242 μM",98.4903
same,IL-6 Measurements Mean,"IL-6; Donor 3, Conc. 22484 μM",108.5158
same,LPS-induced IL-6 secretion,IL-6; Donor 1,increased
same,LPS-induced IL-6 secretion,IL-6; Donor 2,increased
same,LPS-induced IL-6 secretion,IL-6; Donor 3,significantly increased
